Measurements as given in ChEMBL document CHEMBL1158666, “Carmabins A and B, new lipopeptides from the Caribbean cyanobacterium Lyngbya majuscula” (J Nat Prod, 1998).
The source made the active and inactive calls. The calls are words filed in the database; no cut-off is given here. Square brackets hold non-standard residues; d marks the D form. Peptide text beside a SMILES is read from it. * marks the point of attachment. NMeY = CN[C@@H](Cc1ccc(O)cc1)C(=O)O; NMeF = CN[C@@H](Cc1ccccc1)C(=O)O; X2 = CC(=O)CCCCC(C)CC(C)C(=O)*; X1 = C#CCCCCC(C)CC(C)C(=O)*; NMeA = CN[C@@H](C)C(=O)O

Tested on: NCI60
Assay: Cytotoxicity against human NCI60 cells
Type: functional, cell-based

C#CCCCCC(C)CC(C)C(=O)N(C)[C@@H](Cc1ccccc1)C(=O)N[C@@H](C)C(=O)N(C)[C@@H](C)C(=O)N(C)[C@@H](Cc1ccc(OC)cc1)C(N)=O (some centres not stated) (X1-[NMeF]A[NMeA][NMeY](Me)-NH2)
Activity: inactive

COc1ccc(C[C@@H](C(N)=O)N(C)C(=O)[C@H](C)N(C)C(=O)[C@H](C)NC(=O)[C@H](Cc2ccccc2)N(C)C(=O)C(C)CC(C)CCCCC(C)=O)cc1 (some centres not stated) (X2-[NMeF]A[NMeA][NMeY](Me)-NH2)
Activity: inactive
